{"source": "patent US20230000852A1", "about": "“Treatment of Dermal Cytokine Storm Syndromes” (Bridge Pharma, Inc., priority 2021, published 2023)", "key": {"[1]": {"test_system": "TNFα", "assay": "PHA-induced TNFα release from human leucocytes (buffy coats)", "assay_type": "cell-based", "details": "Leucocyte, 30 min pre-incubation, PHA 5 μg/ml 16 hours", "method": "(§1) The objective of this study was to assess the ability of norketotifen to inhibit cytokine release from stimulated human leucocytes.\n(§2) The study was conducted in two phases. The first phase included optimization of the test methodology and including dose-range finding studies, using buffy coats from 3 human donors, stimulated with phytohemagglutinin (PHA). Following optimization of the test conditions, a final protocol was issued. In the ensuing Main Study, white blood cells (buffy coats) from 5 healthy human donors were stimulated with PHA, 5 μg/ml. The concentrations of the test article and the duration of exposure were optimized to obtain acceptable dose-response ratios. Thus, the inhibitory effects of three concentrations of NK and one concentration of ketotifen were evaluated in the Main Study. The buffy coats containing white blood cells from 5 male human donors were resuspended in assay media and were pre-incubated for 30 min with either vehicle/saline, ketotifen 4.3 μg/ml (10 μM) and norketotifen 0.4 μg/ml, 4.1 μg/ml and 41 μg/ml (1.0; 10 and 100 μM). Following these preincubations, the white blood cells were stimulated for 16 hours with PHA, 5 μg/ml. The cell system supernatants were then harvested and stored frozen pending analyses.\n(§3) The concentration of the test articles had to be high in this ex vivo study since the test kit used a high concentration of the agonist PHA (5 μg/ml) and a long exposure time (16 hrs)."}, "[2]": {"test_system": "IL-4", "assay": "PHA-induced IL-4 release from human leucocytes (buffy coats)", "assay_type": "cell-based", "details": "Leucocyte, 30 min pre-incubation, PHA 5 μg/ml 16 hours", "method": "as §1, §2, §3"}, "[3]": {"test_system": "IL-2", "assay": "PHA-induced IL-2 release from human leucocytes (buffy coats)", "assay_type": "cell-based", "details": "Leucocyte, 30 min pre-incubation, PHA 5 μg/ml 16 hours", "method": "as §1, §2, §3"}, "[4]": {"test_system": "IL-10", "assay": "PHA-induced IL-10 release from human leucocytes (buffy coats)", "assay_type": "cell-based", "details": "Leucocyte, 30 min pre-incubation, PHA 5 μg/ml 16 hours", "method": "as §1, §2, §3"}, "[5]": {"test_system": "INF-γ", "assay": "PHA-induced INF-γ release from human leucocytes (buffy coats)", "assay_type": "cell-based", "details": "Leucocyte, 30 min pre-incubation, PHA 5 μg/ml 16 hours", "method": "as §1, §2, §3"}, "[6]": {"test_system": "MCP-1", "assay": "PHA-induced MCP-1 release from human leucocytes (buffy coats)", "assay_type": "cell-based", "details": "Leucocyte, 30 min pre-incubation, PHA 5 μg/ml 16 hours", "method": "as §1, §2, §3"}, "[7]": {"test_system": "human leucocytes (buffy coats)", "assay": "Cytokine and chemokine release from stimulated human leucocytes, overall", "assay_type": "cell-based", "details": "PHA 5 μg/ml, 16 hours", "method": "as §1\nas §2, with “analyses. […]” for “analyses.”"}, "[8]": {"assay": "Dermal and plasma concentrations of NK after oral dosing to dogs", "assay_type": "in vivo", "method": "The purpose was to determine drug concentrations and calculate pharmacokinetics in the skin and plasma of dogs during and following daily oral administration of S-NK-HF (the S-isomer of norketotifen hydrogen fumarate) for four weeks.\nFive male beagle dogs, weighing 11.2-13.9 kg (2-4 years old) were included in the study. All animals were administered p.o. doses of the test article 8.0 mg/kg/day as a hydrogen fumarate salt, equal to 5.6 mg/kg/day of the free base. A single isomer of NK was used, since an objective of this study was also to assess the racemization of the NK isomers. The animals were dosed once daily for four weeks followed by daily observations and tissue sampling for an additional two-week washout period.\nMultiple plasma samples and skin biopsies were taken from each dog on Day 1 and Day 28 of drug administration. The plasma and skin samplings were performed at pre-dose, and at 2, 6, 12, and 24 hours post-dose. Plasma and skin samples were also taken intermittently at predetermined intervals during the 28-days dosing period and up to the last day of the study, which was Day 42. Blood samples were taken from v. cephalica antebrachii. Skin biopsies were taken from the area between the mid ventral to lateral abdominal areas, using a 6 mm skin biopsy punch. Subcutaneous fat deposits were carefully trimmed from the skin samples and the skin samples were then weighed. All plasma and skin samples were analyzed using LC/MS/MS methodology."}, "[9]": {"test_system": "sedation", "details": "art-accepted mouse model of sedation; U.S. Pat. Nos. 7,226,934 and 7,557,128; cited from earlier work"}, "[10]": {"test_system": "sedation", "details": "humans, oral; U.S. Pat. Nos. 9,138,431 and 9,345,697; cited from earlier work"}}, "note": "Where two headings read alike, the source gives them in different places."}
{"smiles": "O=C1Cc2ccccc2C(=C2CCNCC2)c2ccsc21", "note": "(racemic) [NK, norketotifen]", "values": [{"measurement": "inhibition at 1 µM", "setting": "[1]; 1 uM", "value": 4.54, "unit": "%"}, {"measurement": "inhibition at 10 µM", "setting": "[1]; 10 uM", "value": 42.2, "unit": "%"}, {"measurement": "inhibition at 100 µM", "setting": "[1]; 100 uM", "value": 89.1, "unit": "%"}, {"measurement": "inhibition at 1 µM", "setting": "[2]; 1 uM", "value": 0, "unit": "%"}, {"measurement": "inhibition at 10 µM", "setting": "[2]; 10 uM", "value": 14.3, "unit": "%"}, {"measurement": "inhibition at 100 µM", "setting": "[2]; 100 uM", "value": 98.3, "unit": "%"}, {"measurement": "inhibition at 1 µM", "setting": "[3]; 1 uM", "value": 0, "unit": "%"}, {"measurement": "inhibition at 10 µM", "setting": "[3]; 10 uM", "value": 46.6, "unit": "%"}, {"measurement": "inhibition at 100 µM", "setting": "[3]; 100 uM", "value": 93.5, "unit": "%"}, {"measurement": "inhibition at 1 µM", "setting": "[4]; 1 uM", "value": 12.7, "unit": "%"}, {"measurement": "inhibition at 10 µM", "setting": "[4]; 10 uM", "value": 24.8, "unit": "%"}, {"measurement": "inhibition at 100 µM", "setting": "[4]; 100 uM", "value": 90.4, "unit": "%"}, {"measurement": "inhibition at 1 µM", "setting": "[5]; 1 uM", "value": 0, "unit": "%"}, {"measurement": "inhibition at 10 µM", "setting": "[5]; 10 uM", "value": 16.5, "unit": "%"}, {"measurement": "inhibition at 100 µM", "setting": "[5]; 100 uM", "value": 71.6, "unit": "%"}, {"measurement": "inhibition at 1 µM", "setting": "[6]; 1 uM", "value": 2.04, "unit": "%"}, {"measurement": "inhibition at 10 µM", "setting": "[6]; 10 uM", "value": 14.3, "unit": "%"}, {"measurement": "inhibition at 100 µM", "setting": "[6]; 100 uM", "value": 84.5, "unit": "%"}, {"measurement": "Inhibition of release of cytokines and chemokines from human white blood cells (in words)", "setting": "[7]", "value": "dose-dependently inhibited"}, {"measurement": "half-life", "setting": "[8]; male, beagle, dog, plasma, oral, 8 mg/kg/day, plasma, read-out: Plasma half-life", "value": "10 to 11", "unit": "h"}, {"measurement": "half-life", "setting": "[8]; male, beagle, dog, plasma, po, 8 mg/kg/day, oral S-NK 8.0 mg/kg/day for 28 days, dogs (N = 5), plasma, read-out: T1/2 Plasma (converted)", "value": 10.5, "unit": "h"}, {"measurement": "half-life", "setting": "[8]; male, beagle, dog, skin, oral, 8 mg/kg/day, skin, read-out: Dermal half-life (duration of high concentration in the skin)", "value": "≤ 168", "unit": "h"}, {"measurement": "Kp", "setting": "[8]; male, beagle, dog, skin, oral, 8 mg/kg/day, under laboratory conditions, read-out: Skin concentration relative to plasma concentration", "value": "≤ 16"}, {"measurement": "half-life", "setting": "[8]; male, beagle, dog, skin, po, 8 mg/kg/day, oral S-NK 8.0 mg/kg/day for 28 days, dogs (N = 5), skin, read-out: T1/2 Skin (converted)", "value": 168, "unit": "h"}, {"measurement": "MRT", "setting": "[8]; male, beagle, dog, oral S-NK 8.0 mg/kg/day for 28 days, dogs (N = 5), plasma, read-out: MRT Plasma", "value": 12.8, "unit": "h"}, {"measurement": "MRT", "setting": "[8]; male, beagle, dog, oral S-NK 8.0 mg/kg/day for 28 days, dogs (N = 5), skin, read-out: MRT Skin", "value": 169, "unit": "h"}, {"measurement": "AUC∞ Plasma", "setting": "[8]; oral S-NK 8.0 mg/kg/day for 28 days, dogs (N = 5), plasma", "value": "3286 ng*hr/mL or g"}, {"measurement": "AUC∞ Skin", "setting": "[8]; oral S-NK 8.0 mg/kg/day for 28 days, dogs (N = 5), skin", "value": "54187 ng*hr/mL or g"}, {"measurement": "Dermal half-life in skin of dogs (in words)", "setting": "[8]; skin of dogs", "value": "one week"}, {"measurement": "Sedative effects", "setting": "[9]", "value": "significant sedative effects"}, {"measurement": "Sedative side effects", "setting": "[10]", "value": "free from sedative side effects"}]}
